Laboratory results taken from US20180186755A1, “LYSYL OXIDASE-LIKE 2 INHIBITORS AND USES THEREOF” (PharmAkea, Inc., priority 2015, published 2018).
Structures can show the parent of a compound that is named as a salt.

The molecules below were run against T1, human LOXL2 (Homo sapiens, UniProt Q9Y4K0) (assay: Human LOXL2 amine oxidase activity assay (Amplex Red fluorescence)). Conditions: concentrated conditioned media from CHO cells stably expressing human LOXL2; 2 h at 37° C. preincubation; DAP substrate.
T1 construct: expressed in transfected cells; 10-20x concentrated conditioned media used as the enzyme source
T1 sequence (Q9Y4K0 26-774): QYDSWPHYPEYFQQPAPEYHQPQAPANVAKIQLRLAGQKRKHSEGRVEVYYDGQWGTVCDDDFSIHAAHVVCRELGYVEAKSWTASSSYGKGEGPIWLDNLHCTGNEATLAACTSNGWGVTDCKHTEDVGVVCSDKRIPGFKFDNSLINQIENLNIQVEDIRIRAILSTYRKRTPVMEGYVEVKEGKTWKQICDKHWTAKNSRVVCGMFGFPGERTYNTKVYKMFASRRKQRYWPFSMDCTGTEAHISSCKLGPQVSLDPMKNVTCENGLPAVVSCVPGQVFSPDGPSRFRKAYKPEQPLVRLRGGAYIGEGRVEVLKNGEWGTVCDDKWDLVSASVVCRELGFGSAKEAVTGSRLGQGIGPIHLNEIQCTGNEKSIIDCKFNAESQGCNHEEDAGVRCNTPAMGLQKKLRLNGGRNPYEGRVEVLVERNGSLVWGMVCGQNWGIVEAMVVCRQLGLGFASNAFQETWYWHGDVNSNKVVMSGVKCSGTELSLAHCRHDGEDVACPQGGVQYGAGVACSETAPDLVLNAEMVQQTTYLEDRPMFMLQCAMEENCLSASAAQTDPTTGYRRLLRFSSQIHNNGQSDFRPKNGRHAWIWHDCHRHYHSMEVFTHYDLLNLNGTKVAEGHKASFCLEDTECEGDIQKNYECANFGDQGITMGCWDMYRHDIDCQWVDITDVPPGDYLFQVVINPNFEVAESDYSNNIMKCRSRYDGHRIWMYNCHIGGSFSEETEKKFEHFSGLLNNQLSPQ
Type: biochemical
Procedure: Example B-1: Human LOXL2 Amine Oxidase Activity Assay
LOXL2 amine oxidase activity is evaluated by measuring Amplex Red fluorescence using 10-20× concentrated conditioned media from CHO cells stably expressing human LOXL2.
To assay for amine oxidase activity, 10 μL of the concentrated conditioned media is incubated with 2 μL of test compound in DMSO and 73 μL Assay Buffer (50 mM Borate Buffer, pH8) for 2 h at 37° C. After the 2 h incubation, 5 ul of 10 mM 1,5-Diaminopentane (DAP) diluted in Assay Buffer and 10 μl of Amplex Red Mix (8.5 μl Assay Buffer+0.5 μl of 10 mM Amplex Red+1 μl of 500 U/ml Horseradish Peroxidase) are added and the plate mixed and immediately placed on the FlexStaion for fluorescence measurements. Fluorescence is read in kinetic mode every 2 min for 1 hour at excitation=544 and emission=590. The amine oxidase activity is calculated from the slope of the linear portion of the curve.

IC50 | SMILES
< 100 nM | NCc1cc(Oc2cccc(C(=O)N3C[C@@H](O)[C@H](F)C3)c2)ncn1 (racemic) [Compound 1-11, Racemic-trans-(3-((6-(aminomethyl)pyrimidin-4-yl)oxy)phenyl)(3-fluoro-4-hydroxypyrrolidin-1-yl)methanone hydrochloride]
< 100 nM | NCc1cc(OCc2cccc(C(=O)N3CCCC(O)(C(F)(F)F)C3)c2)ncn1 (racemic) [Compound 1-35, Racemic-(3-(((6-(aminomethyl)pyrimidin-4-yl)oxy)methyl)phenyl)(3-hydroxy-3-(trifluoromethyl)piperidin-1-yl)methanone]
< 100 nM | CN1CC(CNC(=O)c2cccc(COc3cc(CN)ncn3)c2)OC1=O (racemic) [Compound 1-36, Racemic-3-(((6-(aminomethyl)pyrimidin-4-yl)oxy)methyl)-N-((3-methyl-2-oxooxazolidin-5-yl)methyl)benzamide]
100 to 1000 nM | CC(Oc1cc(CN)ncn1)c1cccc(C(=O)Nc2ccccc2)c1 (racemic) [Compound 1-95, Racemic-3-(1-((6-(aminomethyl)pyrimidin-4-yl)oxy)ethyl)-N-phenylbenzamide]
< 100 nM | NCc1cc(Oc2cccc(Oc3ccccc3)c2)ncn1 [Compound 1-2, (6-(3-Phenoxyphenoxy)pyrimidin-4-yl)methanamine hydrochloride]
< 100 nM | NCc1cc(Oc2cccc(C(=O)Nc3ccccc3)c2)ncn1 [Compound 1-3, 3-((6-(Aminomethyl)pyrimidin-4-yl)oxy)-N-phenylbenzamide hydrochloride]
< 100 nM | NCc1cc(Oc2cccc(C(=O)Nc3ccc(C(=O)O)cc3)c2)ncn1 [Compound 1-4, 4-(3-((6-(Aminomethyl)pyrimidin-4-yl)oxy)benzamido)benzoic acid hydrochloride]
< 100 nM | NCc1cc(Oc2cccc(C(=O)NCc3ccc(C(=O)O)cc3)c2)ncn1 [Compound 1-5, 4-((3-((6-(Aminomethyl)pyrimidin-4-yl)oxy)benzamido)methyl)benzoic Acid Hydrochloride]
< 100 nM | NCc1cc(Oc2cccc(C(=O)NCc3cc4ccccc4s3)c2)ncn1 [Compound 1-6, 3-((6-(Aminomethyl)pyrimidin-4-yl)oxy)-N-(benzo[b]thiophen-2-ylmethyl)benzamide hydrochloride]
100 to 1000 nM | NCc1cc(Oc2cccc(C(=O)NCCC(=O)O)c2)ncn1 [Compound 1-7, 3-(3-((6-(Aminomethyl)pyrimidin-4-yl)oxy)benzamido)propanoic Acid Hydrochloride]
100 to 1000 nM | NCc1cc(Oc2cccc(C(=O)NCCCC(=O)O)c2)ncn1 [Compound 1-8, 4-(3-((6-(Aminomethyl)pyrimidin-4-yl)oxy)benzamido)butanoic Acid Hydrochloride]
< 100 nM | NCc1cc(Oc2cccc(C(=O)NCCO)c2)ncn1 [Compound 1-9, 3-((6-(Aminomethyl)pyrimidin-4-yl)oxy)-N-(2-hydroxyethyl)benzamide hydrochloride]
< 100 nM | NCc1cc(Oc2cccc(C(=O)N3CC[C@H](O)C3)c2)ncn1 [Compound 1-10, (S)-(3-((6-(Aminomethyl)pyrimidin-4-yl)oxy)phenyl)(3-hydroxypyrrolidin-1-yl)methanone hydrochloride]
< 100 nM | CS(=O)(=O)CCNC(=O)c1cccc(Oc2cc(CN)ncn2)c1 [Compound 1-12, 3-((6-(Aminomethyl)pyrimidin-4-yl)oxy)-N-(2-(methylsulfonyl)ethyl)benzamide hydrochloride]
< 100 nM | NCc1cc(Oc2cccc(C(=O)NCCS(N)(=O)=O)c2)ncn1 [Compound 1-13, 3-((6-(Aminomethyl)pyrimidin-4-yl)oxy)-N-(2-sulfamoylethyl)benzamide hydrochloride]
100 to 1000 nM | NCc1cc(Oc2cccc3c2CCC(=O)N3CC(=O)O)ncn1 [Compound 1-14, 2-(5-((6-(Aminomethyl)pyrimidin-4-yl)oxy)-2-oxo-3,4-dihydroquinolin-1(2H)-yl)acetic Acid Hydrochloride]
< 100 nM | NCc1cc(Oc2cccc3c2CCC(=O)N3CCO)ncn1 [Compound 1-15, (5-((6-(Aminomethyl)pyrimidin-4-yl)oxy)-1-(2-hydroxyethyl)-3,4-dihydroquinolin-2(1H)-one hydrochloride]
< 100 nM | COc1ccc(CN2C(=O)CCc3c(Oc4cc(CN)ncn4)cccc32)cn1 [Compound 1-16, 5-((6-(Aminomethyl)pyrimidin-4-yl)oxy)-1-((6-methoxypyridin-3-yl)methyl)-3,4-dihydroquinolin-2(1H)-one acetate]

IC50 | SMILES
< 100 nM | NCc1cc(Oc2ccc3cc[nH]c3c2)ncn1 [Compound 1-17, (6-((1H-Indol-6-yl)oxy)pyrimidin-4-yl)methanamine]
< 100 nM | NCc1cc(Oc2ccc3[nH]ccc3c2)ncn1 [Compound 1-18, (6-((1H-Indol-5-yl)oxy)pyrimidin-4-yl)methanamine trifluoroacetate]
< 100 nM | NCc1cc(Oc2cccc3[nH]ccc23)ncn1 [Compound 1-19, (6-((1H-Indol-4-yl)oxy)pyrimidin-4-yl)methanamine]
< 100 nM | CCn1ccc2c(Oc3cc(CN)ncn3)cccc21 [Compound 1-20, (6-((1-Ethyl-1H-indol-4-yl)oxy)pyrimidin-4-yl)methanamine]
< 100 nM | COC(=O)Cn1ccc2c(Oc3cc(CN)ncn3)cccc21 [Compound 1-21, Methyl 2-(4-((6-(aminomethyl)pyrimidin-4-yl)oxy)-1H-indol-1-yl)acetate]
< 100 nM | NCc1cc(Oc2cccc3c2ccn3CC(=O)O)ncn1 [Compound 1-22, 2-(4-((6-(Aminomethyl)pyrimidin-4-yl)oxy)-1H-indol-1-yl)acetic acid]
100 to 1000 nM | NCc1cc(Oc2cccc3c2ccn3CC(=O)N2CCCCC2)ncn1 [Compound 1-23, 2-(4-((6-(Aminomethyl)pyrimidin-4-yl)oxy)-1H-indol-1-yl)-1-(piperidin-1-yl)ethan-1-one]
< 100 nM | CN(C(=O)Cn1ccc2c(Oc3cc(CN)ncn3)cccc21)c1ccccc1 [Compound 1-24, 2-(4-((6-(Aminomethyl)pyrimidin-4-yl)oxy)-1H-indol-1-yl)-N-methyl-N-phenylacetamide]
< 100 nM | CS(=O)(=O)CCn1ccc2c(Oc3cc(CN)ncn3)cccc21 [Compound 1-25, (6-((1-(2-(Methylsulfonyl)ethyl)-1H-indol-4-yl)oxy)pyrimidin-4-yl)methanamine]
< 100 nM | NCc1cc(Oc2cccc3c2ccn3Cc2ccccc2)ncn1 [Compound 1-26, (6-((1-Benzyl-1H-indol-4-yl)oxy)pyrimidin-4-yl)methanamine]
< 100 nM | COC(=O)c1cccc(Cn2ccc3c(Oc4cc(CN)ncn4)cccc32)c1 [Compound 1-27, Methyl 3-((4-((6-(aminomethyl)pyrimidin-4-yl)oxy)-1H-indol-1-yl)methyl)benzoate]
< 100 nM | NCc1cc(Oc2cccc3c2ccn3Cc2cccc(C(=O)O)c2)ncn1 [Compound 1-28, 3-((4-((6-(Aminomethyl)pyrimidin-4-yl)oxy)-1H-indol-1-yl)methyl)benzoic acid]
< 100 nM | COc1ccc(Cn2ccc3cc(Oc4cc(CN)ncn4)ccc32)cn1 [Compound 1-29, (6-((1-((6-Methoxypyridin-3-yl)methyl)-1H-indol-5-yl)oxy)pyrimidin-4-yl)methanamine]
< 100 nM | COc1ccc(Cn2c(C)cc3c(Oc4cc(CN)ncn4)cccc32)cn1 [Compound 1-30, (6-((1-((6-Methoxypyridin-3-yl)methyl)-2-methyl-1H-indol-4-yl)oxy)pyrimidin-4-yl)methanamine]
< 100 nM | COc1ccc(Cn2cc(C)c3c(Oc4cc(CN)ncn4)cccc32)cn1 [Compound 1-31, (6-((1-((6-Methoxypyridin-3-yl)methyl)-3-methyl-1H-indol-4-yl)oxy)pyrimidin-4-yl)methanamine]
< 100 nM | Cn1cc(-n2ccc3c(Oc4cc(CN)ncn4)cccc32)cn1 [Compound 1-32, (6-((1-(1-Methyl-1H-pyrazol-4-yl)-1H-indol-4-yl)oxy)pyrimidin-4-yl)methanamine]
< 100 nM | CN(C)C(=O)c1cccc(COc2cc(CN)ncn2)c1 [Compound 1-33, 3-(((6-(Aminomethyl)pyrimidin-4-yl)oxy)methyl)-N,N-dimethylbenzamide]

SMILES | IC50
NCc1cc(Oc2ccc(F)cc2)ncn1 [Compound 1-1, (6-(4-Fluorophenoxy)pyrimidin-4-yl)methanamine trifluoroacetate] | < 100 nM
